Columns and labels:
[1] = test system: wildling pine of the variety Loblolly (Pinus taeda); experiment: Field experiment Site 4: wildling Loblolly pine control, damage rating 0 to 100%; format: in vivo; conditions: field Site 4, combined with phenyluracil I.1.4
Method: The evaluation for the damage caused by the chemical compositions was carried out using a scale from 0 to 100%, compared to the untreated control plants. Here, 0 means no damage and 100 means complete destruction of the plants.

[2] = test system: pine species (loblolly pine); experiment: Field experiment Site 2: percent brownout of pine species following May application; format: in vivo, Pinus taeda; conditions: Site 2, May application, 0.840 kg a.i./ha, 1 WAT
Method: For the following experiment the phenyluracil of formula I and optionally the herbicide B were applied as an aqueous spray liquor. Phenyluracil I.1.4 (phenyluracil of formula I) was used as emulsifiable concentrate (0.120 kg a.i./L). Imazapyr (herbicide B) was used as an emulsifiable concentrate (26.7% by weight; Chopper®/BASF Corporation). Glyphosate (herbicide B) was used as a soluble concentrate (53.8% by weight; Accord® Concentrate/Dow AgroScience) Methylated seed oil (MSO) was also added to the spray liquor in amounts of 25.0% volume/volume as a standard spray adjuvant. Water was used as the carrier. Spray carrier volume was 65 L/ha.
The spray liquor had the following general recipe (based on a spray volume of 65 L/ha):
Herbicide treatments were applied in the spring using a pole sprayer with a single KLC-9 flood tip spraying from a height of 335 cm. This application technique was used to simulate operational aerial applications as closely as practical. Treatment plots were 9×18 m.
Woody vegetation was assessed at treatment and in the fall of the year of treatment and one year after treatment (one and two growing seasons after treatment). The most common woody species on the site at treatment included loblolly pine (Pinus taeda), southern red oak (Quercus falcata), water oak (Quercus nigra) and Vaccinium spp. […]

Row | SMILES | effect of addition on control of wildling pine (in words) [1] | brownout of pine species [2]
1 | COc1c(Cl)ccc(Cl)c1C(=O)O [dicamba] | improved the control | 
2 | CC(C)C1(C)N=C(c2ncccc2C(=O)O)NC1=O (centres unmarked) [imazapyr] |  | 2%
